Reference: PubChem BioAssay (NCI)
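These data come from cells grown in 96-well plates and exposed to compound for 48 hours at five concentrations. The concentration for 50% growth inhibition is given as GI50. TGI is the concentration that stops growth completely.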

Legend:
Experiment in all cases: DTP human tumour cell line panel, 48 h
IGROV1 ovarian = system: IGROV1 ovarian
NCI-H522 lung = system: NCI-H522 lung
SNB-75 CNS = system: SNB-75 CNS
PC-3 prostate = system: PC-3 prostate
BT-549 breast = system: BT-549 breast
SF-268 CNS = system: SF-268 CNS
NCI-H460 lung = system: NCI-H460 lung
UACC-257 melanoma = system: UACC-257 melanoma
MCF7 breast = system: MCF7 breast
LOX IMVI melanoma = system: LOX IMVI melanoma
UACC-62 melanoma = system: UACC-62 melanoma
MDA-MB-231 breast = system: MDA-MB-231 breast
SF-295 CNS = system: SF-295 CNS
OVCAR-8 ovarian = system: OVCAR-8 ovarian
HOP-92 NSCLC = system: HOP-92 NSCLC
HT29 colon = system: HT29 colon
HOP-62 NSCLC = system: HOP-62 NSCLC
MALME-3M melanoma = system: MALME-3M melanoma
A549 NSCLC = system: A549 NSCLC
SK-OV-3 ovarian = system: SK-OV-3 ovarian
CCRF-CEM leukemia = system: CCRF-CEM leukemia
HCT-116 colon = system: HCT-116 colon
SW-620 colon = system: SW-620 colon
NCI-H226 lung = system: NCI-H226 lung
SK-MEL-28 melanoma = system: SK-MEL-28 melanoma
T-47D breast = system: T-47D breast
EKVX NSCLC = system: EKVX NSCLC
SF-539 CNS = system: SF-539 CNS
OVCAR-4 ovarian = system: OVCAR-4 ovarian
COLO 205 colon = system: COLO 205 colon
SK-MEL-2 melanoma = system: SK-MEL-2 melanoma
K-562 leukemia = system: K-562 leukemia
HS 578T breast = system: HS 578T breast
KM12 colon = system: KM12 colon
HCC-2998 colon = system: HCC-2998 colon
RPMI-8226 leukemia = system: RPMI-8226 leukemia
M14 melanoma = system: M14 melanoma
TK-10 renal = system: TK-10 renal
U251 CNS = system: U251 CNS
HL-60(TB) leukemia = system: HL-60(TB) leukemia
DU-145 prostate = system: DU-145 prostate
HCT-15 colon = system: HCT-15 colon
SK-MEL-5 melanoma = system: SK-MEL-5 melanoma
SN12C renal = system: SN12C renal
MDA-MB-468 breast = system: MDA-MB-468 breast
SR leukemia = system: SR leukemia
NCI/ADR-RES ovarian = system: NCI/ADR-RES ovarian
A498 renal = system: A498 renal
MOLT-4 leukemia = system: MOLT-4 leukemia
NCI-H23 lung = system: NCI-H23 lung
RXF 393 renal = system: RXF 393 renal
ACHN renal = system: ACHN renal
OVCAR-5 ovarian = system: OVCAR-5 ovarian
786-0 renal = system: 786-0 renal
SNB-19 CNS = system: SNB-19 CNS
CAKI-1 renal = system: CAKI-1 renal
UO-31 renal = system: UO-31 renal

Q: How did the GI50 (IGROV1 ovarian) turn out when `N#Cc1ccc(/C=N/NC(=O)c2[nH]c3ccc(Br)cc3c2-c2ccccc2)o1` was run?
A: 404 nM

Q: What about the TGI (IGROV1 ovarian) of the same compound?
A: 16600 nM

Q: What about the GI50 (NCI-H522 lung) of the same compound?
A: 91.4 nM

Q: What about the TGI (NCI-H522 lung) of the same compound?
A: 340 nM

Q: What about the GI50 (SNB-75 CNS) of the same compound?
A: 369 nM

Q: And the TGI (SNB-75 CNS)?
A: 14600 nM

Q: What about the GI50 (PC-3 prostate) of the same compound?
A: 482 nM

Q: What about the TGI (PC-3 prostate) of the same compound?
A: 19700 nM

Q: What about the GI50 (BT-549 breast) of the same compound?
A: 243 nM

Q: And the TGI (BT-549 breast)?
A: 3220 nM

Q: And the GI50 (SF-268 CNS)?
A: 611 nM

Q: What about the TGI (SF-268 CNS) of the same compound?
A: 20300 nM

Q: What about the GI50 (NCI-H460 lung) of the same compound?
A: 347 nM

Q: What about the TGI (NCI-H460 lung) of the same compound?
A: 10700 nM

Q: And the GI50 (UACC-257 melanoma)?
A: 1190 nM

Q: And the TGI (UACC-257 melanoma)?
A: 19700 nM

Q: And the GI50 (MCF7 breast)?
A: 306 nM

Q: And the TGI (MCF7 breast)?
A: 16700 nM

Q: And the GI50 (LOX IMVI melanoma)?
A: 124 nM

Q: And the TGI (LOX IMVI melanoma)?
A: 11600 nM

Q: What about the GI50 (UACC-62 melanoma) of the same compound?
A: 392 nM

Q: And the TGI (UACC-62 melanoma)?
A: 17900 nM

Q: What about the GI50 (MDA-MB-231 breast) of the same compound?
A: 246 nM

Q: And the TGI (MDA-MB-231 breast)?
A: 655 nM

Q: What about the GI50 (SF-295 CNS) of the same compound?
A: 321 nM

Q: And the TGI (SF-295 CNS)?
A: 13300 nM

Q: What about the GI50 (OVCAR-8 ovarian) of the same compound?
A: 226 nM

Q: What about the TGI (OVCAR-8 ovarian) of the same compound?
A: 624 nM

Q: And the GI50 (HOP-92 NSCLC)?
A: 2120 nM

Q: What about the TGI (HOP-92 NSCLC) of the same compound?
A: 18200 nM

Q: What about the GI50 (HT29 colon) of the same compound?
A: 204 nM

Q: What about the TGI (HT29 colon) of the same compound?
A: 2520 nM

Q: And the GI50 (HOP-62 NSCLC)?
A: 350 nM

Q: What about the TGI (HOP-62 NSCLC) of the same compound?
A: 13500 nM

Q: And the GI50 (MALME-3M melanoma)?
A: 434 nM

Q: And the TGI (MALME-3M melanoma)?
A: 22200 nM

Q: And the GI50 (A549 NSCLC)?
A: 383 nM

Q: What about the TGI (A549 NSCLC) of the same compound?
A: 14000 nM

Q: And the GI50 (SK-OV-3 ovarian)?
A: 513 nM

Q: And the TGI (SK-OV-3 ovarian)?
A: 22500 nM

Q: And the GI50 (CCRF-CEM leukemia)?
A: 295 nM

Q: What about the TGI (CCRF-CEM leukemia) of the same compound?
A: > 54500 nM

Q: What about the GI50 (HCT-116 colon) of the same compound?
A: 198 nM

Q: And the TGI (HCT-116 colon)?
A: 11700 nM

Q: What about the GI50 (SW-620 colon) of the same compound?
A: 421 nM

Q: And the TGI (SW-620 colon)?
A: 20100 nM

Q: And the GI50 (NCI-H226 lung)?
A: 1110 nM

Q: And the TGI (NCI-H226 lung)?
A: 27500 nM

Q: What about the GI50 (SK-MEL-28 melanoma) of the same compound?
A: 806 nM

Q: What about the TGI (SK-MEL-28 melanoma) of the same compound?
A: 21100 nM

Q: And the GI50 (T-47D breast)?
A: 4660 nM

Q: And the TGI (T-47D breast)?
A: 32900 nM

Q: What about the GI50 (EKVX NSCLC) of the same compound?
A: 496 nM

Q: What about the TGI (EKVX NSCLC) of the same compound?
A: 27300 nM

Q: And the GI50 (SF-539 CNS)?
A: 212 nM

Q: And the TGI (SF-539 CNS)?
A: 527 nM

Q: What about the GI50 (OVCAR-4 ovarian) of the same compound?
A: 1100 nM

Q: What about the TGI (OVCAR-4 ovarian) of the same compound?
A: 25300 nM

Q: And the GI50 (COLO 205 colon)?
A: 198 nM

Q: And the TGI (COLO 205 colon)?
A: 371 nM

Q: What about the GI50 (SK-MEL-2 melanoma) of the same compound?
A: 294 nM

Q: What about the TGI (SK-MEL-2 melanoma) of the same compound?
A: 13500 nM

Q: And the GI50 (K-562 leukemia)?
A: 128 nM

Q: And the TGI (K-562 leukemia)?
A: 15000 nM

Q: What about the GI50 (HS 578T breast) of the same compound?
A: 313 nM

Q: And the TGI (HS 578T breast)?
A: 20100 nM

Q: What about the GI50 (KM12 colon) of the same compound?
A: 315 nM

Q: What about the TGI (KM12 colon) of the same compound?
A: 11300 nM

Q: What about the GI50 (HCC-2998 colon) of the same compound?
A: 278 nM

Q: What about the TGI (HCC-2998 colon) of the same compound?
A: 2620 nM

Q: What about the GI50 (RPMI-8226 leukemia) of the same compound?
A: 369 nM

Q: What about the TGI (RPMI-8226 leukemia) of the same compound?
A: 27900 nM

Q: What about the GI50 (M14 melanoma) of the same compound?
A: 324 nM

Q: What about the TGI (M14 melanoma) of the same compound?
A: 22700 nM

Q: And the GI50 (TK-10 renal)?
A: 7320 nM

Q: And the TGI (TK-10 renal)?
A: 26900 nM

Q: And the GI50 (U251 CNS)?
A: 330 nM

Q: What about the TGI (U251 CNS) of the same compound?
A: 12300 nM

Q: What about the GI50 (HL-60(TB) leukemia) of the same compound?
A: 196 nM

Q: And the TGI (HL-60(TB) leukemia)?
A: 2780 nM

Q: What about the GI50 (DU-145 prostate) of the same compound?
A: 379 nM

Q: What about the TGI (DU-145 prostate) of the same compound?
A: 14800 nM

Q: What about the GI50 (HCT-15 colon) of the same compound?
A: 333 nM

Q: What about the TGI (HCT-15 colon) of the same compound?
A: 13700 nM

Q: What about the GI50 (SK-MEL-5 melanoma) of the same compound?
A: 272 nM

Q: And the TGI (SK-MEL-5 melanoma)?
A: 770 nM

Q: And the GI50 (SN12C renal)?
A: 389 nM

Q: And the TGI (SN12C renal)?
A: 12600 nM

Q: And the GI50 (MDA-MB-468 breast)?
A: 318 nM

Q: And the TGI (MDA-MB-468 breast)?
A: 14100 nM

Q: What about the GI50 (SR leukemia) of the same compound?
A: 152 nM

Q: What about the GI50 (NCI/ADR-RES ovarian) of the same compound?
A: 136 nM

Q: And the TGI (NCI/ADR-RES ovarian)?
A: 408 nM

Q: What about the GI50 (A498 renal) of the same compound?
A: 15600 nM

Q: And the TGI (A498 renal)?
A: 42300 nM

Q: And the GI50 (MOLT-4 leukemia)?
A: 352 nM

Q: What about the TGI (MOLT-4 leukemia) of the same compound?
A: 32700 nM

Q: What about the GI50 (NCI-H23 lung) of the same compound?
A: 338 nM

Q: And the TGI (NCI-H23 lung)?
A: 14000 nM

Q: What about the GI50 (RXF 393 renal) of the same compound?
A: 486 nM

Q: And the TGI (RXF 393 renal)?
A: 14700 nM

Q: And the GI50 (ACHN renal)?
A: 420 nM

Q: What about the TGI (ACHN renal) of the same compound?
A: 13400 nM

Q: What about the GI50 (OVCAR-5 ovarian) of the same compound?
A: 406 nM

Q: What about the TGI (OVCAR-5 ovarian) of the same compound?
A: 21100 nM

Q: And the GI50 (786-0 renal)?
A: 308 nM

Q: What about the TGI (786-0 renal) of the same compound?
A: 10100 nM

Q: What about the GI50 (SNB-19 CNS) of the same compound?
A: 394 nM

Q: And the TGI (SNB-19 CNS)?
A: 17000 nM

Q: And the GI50 (CAKI-1 renal)?
A: 427 nM

Q: And the TGI (CAKI-1 renal)?
A: 16200 nM

Q: And the GI50 (UO-31 renal)?
A: 454 nM

Q: And the TGI (UO-31 renal)?
A: 15400 nM
